Test results from patent publication US7071231B2, “Naphthalene ureas as glucose uptake enhancers” (Telik, Inc., priority 1999, dated 2006).

Legend:
[1] = test system: GLUT4 in 3T3 L1 adipocytes; assay: Immunofluorescence analysis of GLUT4 mobilization; type: cell-based; conditions: 56 μM Compound 15 alone, 1 hr at 37° C. (FIG. 6C)
Method: Immunofluorescence Analysis of GLUT4 Mobilization in 3T3 L1 Adipocytes Insulin-dependent transport of glucose into cells utilizes glucose transporter proteins, such as GLUT4. Stimulation with insulin causes these transporters to translocate from storage sites within the cell to the cell membrane, where they facilitate glucose entry. 3T3 L1 adipocytes were grown and differentiated as in Example 11, except that they were grown on a microscope chamber slide. The cells were serum-starved with 0.1% BSA in DMEM for 16 hrs and stimulated with 56 μM Compound 15 alone, 100 nM Insulin for 1 hr at 37° C. The cells were fixed with 3.5% paraformaldehyde for 5 min and permeabilized with 0.2% saponin in 1% BSA, TBS for 5 min followed by incubation with anti-GLUT4 antibody for 30 min at room temperature. The cells were extensively washed and incubated with FITC-conjugated secondary antibody for 30 min at room temperature.

male db/db mice = assay: Acute toxicity in db/db mice; type: in vivo; conditions: i.p., 300 mg/kg in PBS
Method: Compound 15 was administered in PBS vehicle to male db/db mice (i.p.) and male CD rats (p.o.) at 300 mg/kg, which is approximately 10 times its effective dose.

STZ/HFD rat = assay: Blood glucose determination in the STZ/HFD rat model of Type 2 diabetes; type: in vivo; conditions: STZ/HFD rat
Description: Blood Glucose Determination in the STZ/HFD Rat Model of Type 2 Diabetes
Representative compounds were also profiled in genetically normal rats given a high-fat diet followed by treatment with a low dose of streptozotocin (STZ/HFD). This treatment regimen recreates both the insulin resistance and the hyperglycemia seen in human Type 2 diabetes. Male CD rats (Jackson Labs, Bar Harbor Me.) were maintained according to NIH guidelines, housed two per cage, and fed either standard lab chow (Tekland Laboratory Diets, James Grain, San Jose, Calif.) or the same chow supplemented with chocolate bars, cookies, and potato chips such that their final diet contained 30% fat by weight (high-fat diet; HFD). After two weeks of this diet, the animals were given an injection of freshly-prepared streptozotocin (35 mg/kg, i.p.) and continued on the HFD. Animals that achieved glucose levels of 190 to 380 mg/dl were used in this study. At the end of the 12-hour light/dark cycle, and just prior to the experiment, the animals were moved to new cages with no food available until 4 hours after treatment. The compound or vehicle (PBS) was given p.o. by gavage, and blood was sampled by approved IACUC protocol using tail cap method. Glucose was determined using the Glucometer Elite (Bayer, Elkhart, Ind.).
The reduction was maximal (20%) 4 hours after the administration of Compound 15.

insulin receptor = target: T1, insulin receptor (Rattus norvegicus, UniProt P15127); assay: Rat muscle insulin receptor phosphorylation after oral dose; type: in vivo; conditions: STZ/HFD rats, oral dose 30 mg/kg, muscle samples 0.5-6 hr (FIG. 12)
T1 construct: from tissue; host or cells: rat muscle (in vivo oral dosing)
Method: Rat Muscle Phosphorylation
Muscle is a particularly important tissue for taking up glucose from the blood in response to insulin receptor stimulation. Activation of muscle insulin receptors is, therefore, an important factor in the control of blood glucose levels. STZ/HFD rats prepared as in Example 18 were given an oral dose of Compound 15 (30 mg/kg), and muscle samples were harvested at different time points (0.5 hr, 1 hr, 2 hr, 3 hr, 4 hr, 6 hr) and homogenized in extraction buffer (50 mM Tris.HCl pH 7.4, 150 mM NaCl, 0.25% sodium deoxycholate, 1% NP40, 1 mM EGTA, 1 mM PMSF, 1 mM Na3VO4, 1 mM NaF, 1 ug/ml each of Aprotinin, Leupeptin and Pepstatin). The tissue homogenate was centrifuged at 12K for 30 min at 4° C., and the supernatants were saved. An equal protein amount from each sample was immunoprecipitated with anti-insulin receptor antibody for 2 hr at 4° C., followed by another 1 hr incubation with Protein G-Agarose beads. The immunecomplexes were washed three times with the extraction buffer, and the samples were boiled in 2× SDS-PAGE loading buffer for 5 min at 100° C. The samples were resolved in a 7.5% SDS-PAGE along with Amersham rainbow marker protein as a molecular weight standard. […]

[2] = target: T2, β-kinase domain of the human insulin receptor (CKD) (Homo sapiens, UniProt P06213); assay: 32P-cytoplasmic kinase domain (CKD) autophosphorylation assay; type: biochemical; conditions: phosphorylation of CKD expressed as % of the vehicle level; 10 minutes at room temperature; compound concentration not given
T2 construct: The complete β-kinase domain of the human insulin receptor (CKD) was expressed in, and purified from, baculovirus; made in house
In short: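 Baculovirus-expressed CKD (4.0 μg/ml) in 29 mM HEPES pH 7.6, 10 mM MgCl2, 2 mM MnCl2 with 50 μM ATP plus ^32P-ATP, 1% DMSO, 10 min at room temperature. EDTA stop, SDS-PAGE, CKD-band radioactivity by phosphorimaging or scintillation counting; activity as % of vehicle phosphorylation.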

T1 sequence (P15127 764-1383 limits assumed): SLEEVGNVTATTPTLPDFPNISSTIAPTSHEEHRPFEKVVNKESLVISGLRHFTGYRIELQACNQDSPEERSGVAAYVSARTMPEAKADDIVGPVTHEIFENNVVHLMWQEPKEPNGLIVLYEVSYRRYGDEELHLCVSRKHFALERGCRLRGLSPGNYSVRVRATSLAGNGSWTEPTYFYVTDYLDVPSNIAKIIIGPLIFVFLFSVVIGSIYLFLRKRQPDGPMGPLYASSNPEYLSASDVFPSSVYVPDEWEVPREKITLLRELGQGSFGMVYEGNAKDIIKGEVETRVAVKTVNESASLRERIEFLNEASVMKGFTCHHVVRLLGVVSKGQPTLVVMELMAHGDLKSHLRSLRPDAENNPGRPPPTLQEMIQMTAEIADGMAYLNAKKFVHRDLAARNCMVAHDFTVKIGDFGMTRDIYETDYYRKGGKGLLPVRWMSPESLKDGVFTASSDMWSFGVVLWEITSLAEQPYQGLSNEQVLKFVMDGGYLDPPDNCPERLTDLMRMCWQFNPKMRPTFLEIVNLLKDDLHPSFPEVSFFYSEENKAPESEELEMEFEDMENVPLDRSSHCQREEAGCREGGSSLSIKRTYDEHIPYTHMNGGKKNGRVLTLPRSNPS
T1 sequence (P15127 27-759 partner limits assumed): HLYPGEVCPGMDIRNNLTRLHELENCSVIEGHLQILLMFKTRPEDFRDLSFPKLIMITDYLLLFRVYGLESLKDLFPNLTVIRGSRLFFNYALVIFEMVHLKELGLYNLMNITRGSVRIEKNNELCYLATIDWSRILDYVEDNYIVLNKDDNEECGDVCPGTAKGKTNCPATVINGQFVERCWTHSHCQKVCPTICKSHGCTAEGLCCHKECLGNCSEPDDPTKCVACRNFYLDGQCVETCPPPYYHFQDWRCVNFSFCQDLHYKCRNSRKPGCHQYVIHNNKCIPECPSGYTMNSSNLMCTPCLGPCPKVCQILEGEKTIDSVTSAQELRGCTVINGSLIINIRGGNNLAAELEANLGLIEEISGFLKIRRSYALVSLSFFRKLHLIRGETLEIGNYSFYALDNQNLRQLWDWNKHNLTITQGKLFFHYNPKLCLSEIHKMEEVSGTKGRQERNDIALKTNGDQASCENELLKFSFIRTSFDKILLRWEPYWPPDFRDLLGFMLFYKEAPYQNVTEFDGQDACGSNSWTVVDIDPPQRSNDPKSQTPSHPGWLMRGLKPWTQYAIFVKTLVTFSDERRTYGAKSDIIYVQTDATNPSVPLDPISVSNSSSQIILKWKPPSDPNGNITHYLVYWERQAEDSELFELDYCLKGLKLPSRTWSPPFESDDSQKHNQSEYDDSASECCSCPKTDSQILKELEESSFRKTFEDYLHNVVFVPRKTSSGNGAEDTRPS
T2 sequence (P06213 980-1382 limits assumed): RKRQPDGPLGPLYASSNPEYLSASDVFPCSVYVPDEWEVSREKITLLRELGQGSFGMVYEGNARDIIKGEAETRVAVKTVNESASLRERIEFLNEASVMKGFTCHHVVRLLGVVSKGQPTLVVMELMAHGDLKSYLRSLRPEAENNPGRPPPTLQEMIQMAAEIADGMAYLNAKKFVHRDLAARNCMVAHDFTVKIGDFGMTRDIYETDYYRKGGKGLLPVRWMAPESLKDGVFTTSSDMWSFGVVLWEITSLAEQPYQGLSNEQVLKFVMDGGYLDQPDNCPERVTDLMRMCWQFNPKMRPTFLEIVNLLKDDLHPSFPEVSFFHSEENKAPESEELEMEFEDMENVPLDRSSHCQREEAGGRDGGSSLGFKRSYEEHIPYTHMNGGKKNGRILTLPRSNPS

## O=C(Nc1ccc2c(O)cc(S(=O)(=O)Nc3cccc(S(=O)(=O)O)c3)cc2c1)Nc1ccc2c(O)cc(S(=O)(=O)Nc3cccc(S(=O)(=O)O)c3)cc2c1 [Compound 15, 3-{[(4-hydroxy-7-{[N-(5-hydroxy-7-{[(3-sulfophenyl)amino]sulfonyl}(2-naphthyl))carbamoyl]amino}-2-naphthyl)sulfonyl]amino}benzenesulfonic acid]
[1]
  GLUT4 translocation (immunofluorescence): produced apparent translocation of GLUT4 to the cell surface
Male db/db mice
  acute toxicity: No acute toxicity was seen
STZ/HFD rat; p.o. by gavage (FIG. 11)
  maximal reduction in blood glucose levels: 20%
  time of maximal reduction in blood glucose after administration: 4 h
STZ/HFD rat; p.o. by gavage, 6 hour experiment (FIG. 11)
  onset and duration of reduction in blood glucose levels: beginning one hour after administration and persisting for the entire 6 hours of the experiment
Insulin receptor
  phosphorylation of the insulin receptor in muscle: produced an increase in phosphorylation of the insulin receptor
[2]
  % Activity vs. Control: 125%
